{"source": "PubChem BioAssay AID292", "about": "(DTP/NCI, 2004)", "test_system": "B6C3F1 mice, ip Sarcoma M5076, median survival T/C", "test": "NCI In Vivo Anticancer Drug Screen. Data for tumor model Sarcoma M5076 (intraperitoneal) in B6C3F1 mice", "settings": "endpoint: median survival time, schedule: Q04DX004 (ip), higher = longer survival", "method_in_brief": "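Antitumour effect is judged in tumour-bearing mice by comparing survival after compound dosing against vehicle-only animals, reported as T/C.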", "key": {"[1]": {"settings": "dose: 50.0 mg/kg/injection, vehicle: saline with Tween-80"}, "[2]": {"settings": "dose: 100.0 mg/kg/injection, vehicle: saline with Tween-80"}, "[3]": {"settings": "dose: 200.0 mg/kg/injection, vehicle: saline with Tween-80"}, "[4]": {"settings": "dose: 400.0 mg/kg/injection, vehicle: saline with Tween-80"}, "[5]": {"settings": "dose: 800.0 mg/kg/injection, vehicle: saline with Tween-80"}, "[6]": {"settings": "dose: 50.0 mg/kg/injection, vehicle: Klucel (hydroxypropylcellulose) (HPC)"}, "[7]": {"settings": "dose: 100.0 mg/kg/injection, vehicle: Klucel (hydroxypropylcellulose) (HPC)"}, "[8]": {"settings": "dose: 200.0 mg/kg/injection, vehicle: Klucel (hydroxypropylcellulose) (HPC)"}}, "note": "Values joined by “and” are separate entries in the source; they are usually repeats but may differ in a detail not shown here. Equal entries are not always repeated. Toxic doses and inconclusive results are not listed."}
{"smiles": "COc1c2c(c(O)c3c4c(c(C)cc13)C1OC3(C(OC)OC5CC(C)(O)C(OC6CC(C)(O)C(O)C(C)O6)C(C)O5)OC1C(OC)(O4)C31CO1)C(=O)C(O)CC2OC1CC(C)(O)C(OC(C)=O)C(C)O1", "note": "(stereo not drawn)", "values": [{"measurement": "T/C", "setting": "dose: 0.03 mg/kg/injection, vehicle: saline", "result": "120 % of control"}, {"measurement": "T/C", "setting": "dose: 15.0 micrograms/kg/injection, vehicle: saline", "result": "105 % of control"}, {"measurement": "T/C", "setting": "dose: 30.0 micrograms/kg/injection, vehicle: saline", "result": "115 % of control"}, {"measurement": "T/C", "setting": "dose: 60.0 micrograms/kg/injection, vehicle: saline", "result": "111 % of control and 118 % of control"}, {"measurement": "T/C", "setting": "dose: 120.0 micrograms/kg/injection, vehicle: saline", "result": "114 % of control"}, {"measurement": "T/C", "setting": "dose: 240.0 micrograms/kg/injection, vehicle: saline", "result": "115 % of control"}]}
{"smiles": "NC(=O)C1C=CN(Cc2ccccc2)C=C1", "values": [{"measurement": "T/C", "setting": "[1]", "result": "111 % of control"}, {"measurement": "T/C", "setting": "[2]", "result": "116 % of control"}, {"measurement": "T/C", "setting": "[3]", "result": "106 % of control"}]}
{"smiles": "Oc1c(Cl)cc(Cl)cc1C1Nc2ccccc2-n2cccc21", "note": "(stereo not drawn)", "values": [{"measurement": "T/C", "setting": "dose: 12.5 mg/kg/injection, vehicle: saline with Tween-80", "result": "90 % of control"}, {"measurement": "T/C", "setting": "dose: 25.0 mg/kg/injection, vehicle: saline with Tween-80", "result": "88 % of control"}, {"measurement": "T/C", "setting": "[1]", "result": "86 % of control and 92 % of control"}, {"measurement": "T/C", "setting": "[4]", "result": "87 % of control"}, {"measurement": "T/C", "setting": "[5]", "result": "91 % of control"}]}
{"smiles": "Oc1cccc2ccccc12", "values": [{"measurement": "T/C", "setting": "dose: 25.0 mg/kg/injection, vehicle: water", "result": "100 % of control"}, {"measurement": "T/C", "setting": "dose: 50.0 mg/kg/injection, vehicle: water", "result": "105 % of control"}, {"measurement": "T/C", "setting": "dose: 100.0 mg/kg/injection, vehicle: water", "result": "98 % of control"}]}
{"smiles": "N#CC1C(=O)NC(=O)C(C#N)C1c1cccc(O)c1", "note": "(stereo not drawn)", "values": [{"measurement": "T/C", "setting": "[6]", "result": "95 % of control"}, {"measurement": "T/C", "setting": "[7]", "result": "102 % of control"}, {"measurement": "T/C", "setting": "[8]", "result": "99 % of control"}, {"measurement": "T/C", "setting": "dose: 400.0 mg/kg/injection, vehicle: Klucel (hydroxypropylcellulose) (HPC)", "result": "95 % of control"}, {"measurement": "T/C", "setting": "dose: 800.0 mg/kg/injection, vehicle: Klucel (hydroxypropylcellulose) (HPC)", "result": "109 % of control"}]}
{"smiles": "C=CCc1cn(C2CC(O)C(CO)O2)c(=O)[nH]c1=O", "note": "(stereo not drawn)", "values": [{"measurement": "T/C", "setting": "dose: 50.0 mg/kg/injection, vehicle: saline", "result": "99 % of control"}, {"measurement": "T/C", "setting": "dose: 100.0 mg/kg/injection, vehicle: saline", "result": "93 % of control"}, {"measurement": "T/C", "setting": "dose: 200.0 mg/kg/injection, vehicle: saline", "result": "93 % of control"}, {"measurement": "T/C", "setting": "dose: 400.0 mg/kg/injection, vehicle: saline", "result": "101 % of control"}]}
{"smiles": "COc1ccc(NC(=O)C2C(=O)C(=O)N(c3ccc(OC)cc3OC)C2=O)c(OC)c1", "note": "(stereo not drawn)", "values": [{"measurement": "T/C", "setting": "[6]", "result": "100 % of control"}, {"measurement": "T/C", "setting": "[7]", "result": "100 % of control"}, {"measurement": "T/C", "setting": "[8]", "result": "97 % of control"}]}
{"smiles": "Cc1cc2c(C(C)C)c(O)c(O)c(C=NCCO)c2c(O)c1-c1c(C)cc2c(C(C)C)c(O)c(O)c(C=NCCO)c2c1O", "values": [{"measurement": "T/C", "setting": "[1]", "result": "116 % of control"}, {"measurement": "T/C", "setting": "dose: 86.4 mg/kg/injection, vehicle: saline with Tween-80", "result": "120 % of control"}, {"measurement": "T/C", "setting": "[2]", "result": "121 % of control"}, {"measurement": "T/C", "setting": "[3]", "result": "123 % of control"}, {"measurement": "T/C", "setting": "dose: 240.0 mg/kg/injection, vehicle: saline with Tween-80", "result": "150 % of control"}, {"measurement": "T/C", "setting": "[4]", "result": "92 % of control and 210 % of control"}, {"measurement": "T/C", "setting": "[5]", "result": "180 % of control"}]}
{"smiles": "NCc1cc(O)c(O)c(O)c1", "values": [{"measurement": "T/C", "setting": "dose: 75.0 mg/kg/injection, vehicle: saline", "result": "100 % of control and 106 % of control"}, {"measurement": "T/C", "setting": "dose: 150.0 mg/kg/injection, vehicle: saline", "result": "100 % of control and 104 % of control"}, {"measurement": "T/C", "setting": "dose: 300.0 mg/kg/injection, vehicle: saline", "result": "100 % of control and 104 % of control"}, {"measurement": "T/C", "setting": "dose: 600.0 mg/kg/injection, vehicle: saline", "result": "101 % of control and 118 % of control"}, {"measurement": "T/C", "setting": "dose: 1200.0 mg/kg/injection, vehicle: saline", "result": "104 % of control"}]}
{"smiles": "C=CCNc1nc2c(s1)c(C)c(O)c1ccccc12", "values": [{"measurement": "T/C", "setting": "dose: 37.5 mg/kg/injection, vehicle: saline with Tween-80", "result": "98 % of control"}, {"measurement": "T/C", "setting": "dose: 75.0 mg/kg/injection, vehicle: saline with Tween-80", "result": "88 % of control"}]}
